Where two headings read alike, the source gives them in different places.

The record followed here is patent EP1614683B1, “Indazole compounds and pharmaceutical compositions for inhibiting protein kinases, and methods for their use” (priority 1999, dated 2001).

The target of one test is human FGF-R1 (Homo sapiens, UniProt P11362, C488A/C584S/L457V). As to the kind of experiment: FGF-R spectrophotometric assay. It counts as biochemical. As to conditions: read-out: FGF-P* (% inhibition). The procedure: The spectrophotometric assay was carried out as described above for VEGF-R2, except for the following changes in concentration: FGF-R = 50 nM, ATP = 2 mM, and poly(E4Y1) =15 mM.

Test [1] deals with human umbilical vein endothelial cells (HUVEC). As to the kind of experiment: HUVEC proliferation assay (VEGF-stimulated, MTT). It counts as cell-based. As to conditions: Homo sapiens, HUVEC, Table 1. As for the experimental part: This assay determines the ability of a test compound to inhibit the growth factor-stimulated proliferation of human umbilical vein endothelial cells ("HUVEC"). HUVEC cells (passage 3-4, Clonetics, Corp.) were thawed into EGM2 culture medium (Clonetics Corp) in T75 flasks. Fresh EGM2 medium was added to the flasks 24 hours later. Four or five days later, cells were exposed to another culture medium (F12K medium supplemented with 10% fetal bovine serum (FBS), 60 µg/mL endothelial cell growth supplement (ECGS), and 0.1 mg/mL heparin). Exponentially-growing HUVEC cells were used in experiments thereafter. Ten to twelve thousand HUVEC cells were plated in 96-well dishes in 100 µl of rich, culture medium (described above). The cells were allowed to attach for 24 hours in this medium. The medium was then removed by aspiration and 105 µl of starvation media (F12K+1% FBS) was added to each well. After 24 hours, 15 µl of test agent dissolved in 1% DMSO in starvation medium or this vehicle alone was added into each treatment well; the final DMSO concentration was 0.1%. One hour later, 30 µl of VEGF (30 ng/mL) in starvation media was added to all wells except those containing untreated controls; the final VEGF concentration was 6 ng/mL. Cellular proliferation was quantified 72 hours later by MTT dye reduction, at which time cells were exposed for 4 hours MTT (Promega Corp.).

In a further test the target is LCK tyrosine kinase (Homo sapiens, UniProt P06239, C224D/P223M). Nature of the test: LCK spectrophotometric assay. The class given is biochemical. As to conditions: read-out: Lck-P* (% inhibition). The procedure: The spectrophotometric assay was carried out as described above for VEGF-R2, except for the following changes in concentration: LCK = 60 nM, MgCl2 = 0 mM, poly(E4Y1) = 20 mM.

Where [2] appears, read: Table 1, compound concentration 1 µM.
Setting [3] is: + albumin, read-out: HUVEC + albumin IC50.

human FGF-R1, sequence (P11362 456-766 L457V/C488A/C584S): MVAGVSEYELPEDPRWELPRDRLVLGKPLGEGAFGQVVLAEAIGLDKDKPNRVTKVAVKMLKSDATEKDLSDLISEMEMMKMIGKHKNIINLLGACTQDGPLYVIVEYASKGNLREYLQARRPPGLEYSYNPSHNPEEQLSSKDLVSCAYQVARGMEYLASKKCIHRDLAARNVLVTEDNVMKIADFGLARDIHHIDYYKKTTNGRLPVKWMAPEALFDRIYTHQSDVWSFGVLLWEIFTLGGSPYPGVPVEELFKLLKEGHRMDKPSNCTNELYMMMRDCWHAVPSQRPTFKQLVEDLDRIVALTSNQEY
LCK tyrosine kinase, sequence (P06239 223-509 P223M/C224D): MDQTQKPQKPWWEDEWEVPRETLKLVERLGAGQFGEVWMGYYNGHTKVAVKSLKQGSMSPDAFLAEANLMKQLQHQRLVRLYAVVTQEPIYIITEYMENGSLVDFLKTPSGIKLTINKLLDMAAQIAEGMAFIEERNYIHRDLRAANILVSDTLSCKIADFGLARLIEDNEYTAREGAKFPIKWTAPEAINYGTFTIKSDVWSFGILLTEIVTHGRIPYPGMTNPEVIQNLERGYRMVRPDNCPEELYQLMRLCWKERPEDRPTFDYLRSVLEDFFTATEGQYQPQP

In the case of `CN(c1cccc(NC(=O)c2cccc(C(F)(F)F)c2)c1)c1ccc2c(/C=C/c3ccc4c(c3)OCO4)n[nH]c2c1` [16(d), N-(3-{[3-(2-Benzo[1,3]dioxol-5-yl-vinyl)-1H-indazol-6-yl]-methyl-amino}-phenyl)-3-trifluoromethyl-benzamide], the inhibition at 1 µM at human FGF-R1 (setting [2]) amounted to 90%; at LCK tyrosine kinase (setting [2]), 33%. Moreover, the IC50 in test [1] (read-out: HUVEC IC50) worked out at 11 nM.
Take `O=C(Nc1cccc(C(=O)c2ccc3c(/C=C/c4ccccc4)n[nH]c3c2)c1)OCc1ccccc1` [19(c), [3-(3-Styryl-1H-indazole-6-carbonyl)-phenyl]-carbamic acid benzyl ester]: the inhibition at 1 µM at human FGF-R1 (setting [2]) stood at 68%; on LCK tyrosine kinase (setting [2]), 50%. Also, the IC50 in test [1] (read-out: HUVEC IC50) was found to be 17 nM.
For `O=C(Nc1cccc(Sc2ccc3c(/C=C/c4ccccc4)n[nH]c3c2)c1)c1ccccc1` [20(b), 6-(3-(Benzoylamido)-phenylsulfanyl)-3-styryl-1H-indazole], the inhibition at 1 µM was 28% on human FGF-R1 (setting [2]) and 23% on LCK tyrosine kinase (setting [2]). Further, in test [1] (read-out: HUVEC IC50), the concentration for half-maximal inhibition (IC50) was found to be 8.2 nM.
Turning to `O=C(Nc1cccc(Nc2ccc3c(/C=C/c4ccccc4)n[nH]c3c2)c1)c1ccccc1` [Example 13, N-[3-(3-Styryl-1H-indazol-6-ylamino)-phenyl)-benzamide], the inhibition at 1 µM at human FGF-R1 amounted to 74%; on LCK tyrosine kinase it was 61%. Further, the IC50 in test [1] (setting [3]) is 28 nM; in test [1] (read-out: HUVEC IC50), 3.9 nM.
With `O=C(Nc1cccc(Oc2ccc3c(/C=C/c4ccco4)n[nH]c3c2)c1)c1ccccc1` [Reference Example 30(c), 6-[3-benzamidophenoxy]-3-[2-(fur-2-yl)ethenyl]-1H-indazole], the inhibition at 1 µM at human FGF-R1 (setting [2]) turned out to be 82%; at LCK tyrosine kinase (setting [2]), 44%. Besides, the values for the IC50 in test [1] (setting [3]) and in test [1] (read-out: HUVEC IC50) were 21 nM and 2.5 nM, respectively.
Take `CCn1nc(C)cc1C(=O)Nc1cccc(Oc2ccc3c(/C=C/c4ccccc4)n[nH]c3c2)c1` [Reference Example 30(e), 6-[3-((1-Ethyl-3-methyl-1H-pyrazol-5-yl)carboxamido)phenoxy]-3-E-stryrylindazole]: the inhibition at 1 µM came to 92% on human FGF-R1 (setting [2]) and 62% at LCK tyrosine kinase (setting [2]). Besides, the IC50 in test [1] (setting [3]) was 29 nM.
Regarding `O=C(NNC(=O)c1ccccc1Sc1ccc2c(/C=C/c3ccccn3)n[nH]c2c1)c1cccs1` [Reference Example 35(m), 6-[2-((Thien-2-ylhydrazido)carbonyl)phenylsulfanyl]-3-E-[2-(pyridin-2-yl)ethenyl]-1H-indazole], the inhibition at 1 µM was 82% on human FGF-R1 (setting [2]) and 61% on LCK tyrosine kinase (setting [2]). In test [1] (setting [3]), the IC50 is 35 nM.
On the same counts, the results for `COc1cc(C(=O)Nc2cccc(C(=O)c3ccc4c(/C=C/c5ccccn5)n[nH]c4c3)c2)cc(Cl)n1` [Reference Example 41(u), 6-[3-((2-chloro-6-methoxypyridin-4-yl)carboxamido)benzoyl]-3-E-[2-(pyridin-2-yl)ethenyl]-1H-indazole] are 74%, 54% and 7.9 nM.

For orientation: inhibition means the relative decrease from the control value, in per cent. Usually IC50 stands for the concentration that inhibits the measured activity by half.
